The experiment has as its target T1, MEK (Homo sapiens, UniProt Q02750).
T1 construct: no tag is given for the 2D mutant
Nature of the experiment: in vitro MEK assay. Format: biochemical. As for the experimental part: For evaluation of direct MEK activity, 10 μg GST-MEK, is incubated in the presence of absence of test compound with 5 μg of a glutathione S-transferase fusion protein containing p44MAP kinase with a lysine to alanine mutation at position 71 (GST-MAPK-KA). This mutation eliminates kinase activity of MAPK, so only kinase activity attributed to the added MEK remains. Incubations are 15 minutes at 30° C. in a final volume of 50 μL containing 50 mM Tris (pH 7.5), […], 2, μM EGTA, and 10 μM [γ-^32P]ATP. The reaction is stopped by addition of Laemmli SDS sample buffer. Phosphorylated GST-MAPK-KA is resolved by electrophoresis on a 10% polyacrylamide gel. Radioactivity incorporated into GST-MAPK-KA is determined by autoradiography, and subsequent scintillation counting of excised bands.
Alternatively, an artificially activated MEK containing serine to glutamate mutations at positions 218 and 222 (GST-MEK-2E) is used. When these two sites are phosphorylated, MEK activity is increased. Phosphorylation of these sites can be mimicked by mutation of the serine residues to glutamate. For this assay, 5 μg GST-MEK-2E is incubated with 5 μg GST-MAPK-KA for 15 minutes at 30° C. in the same reaction buffer as described above. Reactions are terminated and analyzed as above.

Experimental findings from US7001905B2, “Substituted diarylamines as MEK inhibitors” (Warner-Lambert Company, priority 2000, dated 2006) are described below.

T1 sequence (Q02750 whole entry S218D/S222D, form open): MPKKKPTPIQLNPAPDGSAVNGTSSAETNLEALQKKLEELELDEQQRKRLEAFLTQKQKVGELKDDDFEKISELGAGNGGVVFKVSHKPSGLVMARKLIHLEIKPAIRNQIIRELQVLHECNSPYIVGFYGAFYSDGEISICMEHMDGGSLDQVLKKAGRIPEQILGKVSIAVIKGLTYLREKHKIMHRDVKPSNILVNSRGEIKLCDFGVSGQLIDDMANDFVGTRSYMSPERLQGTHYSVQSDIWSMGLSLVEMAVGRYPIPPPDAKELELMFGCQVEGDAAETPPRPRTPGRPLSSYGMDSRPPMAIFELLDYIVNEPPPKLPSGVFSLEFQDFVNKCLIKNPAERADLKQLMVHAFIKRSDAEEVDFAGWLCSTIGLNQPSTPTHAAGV

With `CCSc1nnc(NC(=O)c2cc3c(c(F)c2F)N(c2ccc(I)cc2C)COC3=O)s1` [Example 25, 7,8-Difluoro-1-(4-iodo-2-methyl-phenyl)-4-oxo-1,4-dihydro-2H-3,1-benzoxazine-6-carboxylic acid (5-ethylsulfanyl-1,3,4-thiadiazol-2-yl)-amide], the “in vitro MEK assay: % inhibition @ 1 μM” value turned out to be 5%.
Broadly, the IC50 is the concentration that gives 50% inhibition. Lower therefore signals inhibition by little substance. Take `Cc1cc(I)ccc1Nc1c(C(=O)O)cc(C(=O)N2CCSCC2)c(F)c1F` [Example 99]: 0.15 µM corresponded to half-maximal inhibition (IC50) and the “in vitro MEK assay: % inhibition @ 1 μM” value stood at 82%.
Take `Cc1cc(I)ccc1N1COC(=O)c2cc(C(=O)N3CCSCC3)c(F)c(F)c21` [Example 59, 7,8-Difluoro-1-(4-iodo-2-methyl-phenyl)-6-(thiomorpholine-4-carbonyl)-1,2-dihydro-3,1-benzoxzin-4-one]: the “in vitro MEK assay: % inhibition @ 1 μM” value turned out to be 75%.
On the same count and under the same terms, the same measure for `Cc1cc(I)ccc1N1COC(=O)c2cc(C(=O)N3CC[C@@H](O)C3)c(F)c(F)c21` [Example 8, 7,8-Difluoro-6-((R)-3-hydroxy-pyrrolidine-1-carbonyl)-1-(4-iodo-2-methyl-phenyl)-1,2-dihydro-3,1-benzoxazin-4-one]: 34%; for `Cc1cc(I)ccc1Nc1c(C(=O)O)cc(C(=O)N2CCCC(O)C2)c(F)c1F` (stereo not drawn) [Example 101, 3,4-Difluoro-5-[1-(3-hydroxy-piperidin-1-yl)-methanoyl]-2-(4-iodo-2-methyl-phenylamino)-benzoic acid]: 75%; for `CCCCN(CCS)C(=O)c1cc(C(=O)O)c(Nc2ccc(I)cc2C)c(F)c1F` [Example 68, N-Butyl-4,5-difluoro-6-(4-iodo-2-methyl-phenylamino)-N-(2-mercapto-ethyl)-isophthalamic acid]: 24%.
For the compound `Cc1cc(I)ccc1Nc1c(C(=O)O)cc(C(=O)N2CCSC2)c(F)c1F` [Example 98, 3,4-Difluoro-2-(4-iodo-2-methyl-phenylamino)-5-(1-thiazolidin-3-yl-methanoyl)-benzoic acid], the IC50 turned out to be 0.087 µM and the “in vitro MEK assay: % inhibition @ 1 μM” value was determined as 86%.
Turning to `Cc1cc(I)ccc1Nc1c(C(=O)O)cc(C(=O)N2CCC(O)CC2)c(F)c1F` [Example 81, 3,4-Difluoro-5-[1-(4-hydroxy-piperidin-1-yl)-methanoyl]-2-(4-iodo-2-methyl-phenylamino)-benzoic acid], the IC50 is 1.8 µM and the “in vitro MEK assay: % inhibition @ 1 μM” value is 86%.
In the case of `Cc1cc(I)ccc1N1COC(=O)c2cc(C(=O)N3CCCCC3CCO)c(F)c(F)c21` (stereo not drawn) [Example 32, 7,8-Difluoro-6-[2-(2-hydroxy-ethyl)-piperidine-1-carbonyl]-1-(4-iodo-2-methyl-phenyl)-1,2-dihydro-3,1-benzoxazin-4-one], the “in vitro MEK assay: % inhibition @ 1 μM” value turned out to be 76%.
The same measure, in the same setting: then `Cc1cc(I)ccc1Nc1c(C(=O)O)cc(C(=O)NCC2CCCO2)c(F)c1F` (stereo not drawn) [Example 97, 4,5-Difluoro-6-(4-iodo-2-methyl-phenylamino)-N-(tetrahydro-furan-2-ylmethyl)-isophthalamic acid], with 81%.
For `CCOC(=O)c1c[nH]nc1NC(=O)c1cc2c(c(F)c1F)N(c1ccc(I)cc1C)COC2=O` [Example 34, 3-{[7,8-Difluoro-1-(4-iodo-2-methyl-phenyl)-4-oxo-1,4-dihydro-2H-3,1-benzoxazine-6-carbonyl]-amino}-1H-pyrazole-4-carboxylic acid ethyl ester], the “in vitro MEK assay: % inhibition @ 1 μM” value is reported as 72%.
On the same count and under the same terms, then `COc1ccc2[nH]cc(CCNC(=O)c3cc4c(c(F)c3F)N(c3ccc(I)cc3C)COC4=O)c2c1` [Example 47, 7,8-Difluoro-1-(4-iodo-2-methyl-2-phenyl)-4-oxo-1,4-dihydro-2H-3,1-benzoxazine-6-carboxylic acid [2-(5-methoxy-1H-indol-3-yl)ethyl]-amide], with 0%; and `Cc1cc(I)ccc1N1COC(=O)c2cc(C(=O)NCC3CCCO3)c(F)c(F)c21` (stereo not drawn) [Example 57, 7,8-Difluoro-1-(4-iodo-2-methyl-phenyl)4-oxo-1,4-dihydro-2H-3,1-benzoxazine-6-carboxylic acid (tetrahydro-furan-2-ylmethyl)-amide], with 35%.
`Cc1cc(I)ccc1Nc1c(C(=O)O)cc(C(=O)Nc2ccc3cn[nH]c3c2)c(F)c1F` [Example 86, 4,5-Difluoro-N-(1H-indazol-6-yl)-6-(4-iodo-2-methyl-phenylamino)-isophthalamic acid]: the IC50 is 1.1 µM and the “in vitro MEK assay: % inhibition @ 1 μM” value is 77%.
With `Cc1csc(NC(=O)c2cc3c(c(F)c2F)N(c2ccc(I)cc2C)COC3=O)n1` [Example 24, ,8-Difluoro-1-(4-iodo-2-methyl-phenyl)-4-oxo-1,4dihydro-2H-3,1-benzoxazine-6-carboxylic acid (4-methyl-thiazol-2-yl)-amide], the “in vitro MEK assay: % inhibition @ 1 μM” value turned out to be 20%.
Still for that read-out and setting: the same measure for `Cc1cc(I)ccc1N1COC(=O)c2cc(C(=O)N3CCN(C=O)CC3)c(F)c(F)c21` [Example 15, 4-[7,8-Difluoro-1-(4-iodo-2-methyl-phenyl)-4-oxo-1,4-dihydro-2H-3,1-benzoxazine-6-carbonyl]-piperazine-1-carbaldehyde]: 13%.
As to `Cc1cc(I)ccc1Nc1c(C(=O)O)cc(C(=O)N2CCCCC2CCO)c(F)c1F` (stereo not drawn) [Example 69, 3,4-Difluoro-5-{1-[2-(2-hydroxy-ethyl)-piperidin-1-yl]-methanoyl}-2-(4-iodo-2-methyl-phenylamino)-benzoic acid], the IC50 was determined as 2.2 µM and the “in vitro MEK assay: % inhibition @ 1 μM” value turned out to be 78%.
Consider `Cc1cc(I)ccc1N1COC(=O)c2cc(C(=O)NCCc3c[nH]cn3)c(F)c(F)c21` [Example 50, 7,8-Difluoro-1-(4-iodo-2-methyl-phenyl)4-oxo-1,4-dihydro-2H-3,1-benzoxazine-6-carboxylic acid [2-(1H-imidazol4-yl)-ethyl]-amide], for which the “in vitro MEK assay: % inhibition @ 1 μM” value stood at 44%.
On the same count and under the same terms, the same measure for `Cc1cc(I)ccc1Nc1c(C(=O)O)cc(C(=O)Nc2ccc(S(N)(=O)=O)cc2)c(F)c1F` [Example 96, 4,5-Difluoro-6-(4-iodo-2-methyl-phenylamino)-N-(4-sulfamoyl-phenyl)-isophthalamic acid]: 85%; for `Cc1cc(I)ccc1Nc1c(C(=O)O)cc(C(=O)Nc2ccc3c(c2)OCCO3)c(F)c1F` [Example 72, N-(2,3-Dihydro-benzo[1,4]dioxin-6-yl)4,5-difluoro-6-(4-iodo-2-methyl-phenylamino)-isophthalamic acid]: 65%.
With `Cc1cc(I)ccc1Nc1c(C(=O)O)cc(C(=O)NCCOCCO)c(F)c1F` [Example 65, 4,5-Difluoro-N-[2-(2-hydroxy-ethoxy)-ethyl]-6-(4-iodo-2-methyl-phenylamino)-isophthalamic acid], inhibition was half-maximal at 1.38 µM (IC50) and the “in vitro MEK assay: % inhibition @ 1 μM” value is 63%.
Regarding `COCC(C)NC(=O)c1cc2c(c(F)c1F)N(c1ccc(I)cc1C)COC2=O` (stereo not drawn) [Example 22, 7,8-Difluoro-1-(4-iodo-2-methyl-phenyl)-4-oxo-1,4-dihydro-2H-3,1-benzoxazine-6-carboxylic acid (2-methoxy-1-methyl-ethyl)-amide], the “in vitro MEK assay: % inhibition @ 1 μM” value amounted to 46%.
The same measure, in the same setting: the same measure for `CSc1nc(NC(=O)c2cc3c(c(F)c2F)N(c2ccc(I)cc2C)COC3=O)n[nH]1` [Example 35, 7,8-Difluoro-1-(4-iodo-2-methyl-phenyl)-4-oxo-1,4-dihydro-2H-3,1-benzoxazine-6-carboxylic acid (5-methylsulfanyl-1H-1,2,4-triazol-3-yl)-amide]: 76%; for `Cc1cc(I)ccc1N1COC(=O)c2cc(C(=O)N3CCCC(O)C3)c(F)c(F)c21` (stereo not drawn) [Example 38, 7,8-Difluoro-6-(3-hydroxy-piperidine-1-carbonyl)-1-(4-iodo-2-methyl-phenyl)-1,2-dihydro-3,1-benzoxazin-4-one]: 48%.
On to `Cc1cc(I)ccc1Nc1c(C(=O)O)cc(C(=O)N2CCCC(CO)C2)c(F)c1F` (stereo not drawn) [Example 76, 3,4-Difluoro-5-[1-(3-hydroxymethyl-piperidin-1-yl)-methanoyl]-2-(4-iodo-2-methyl-phenylamino)-benzoic acid], for which half-maximal inhibition (IC50) required 0.3 µM and the “in vitro MEK assay: % inhibition @ 1 μM” value is 88%.
As for `Cc1cc(I)ccc1N1COC(=O)c2cc(C(=O)N3CCC(O)C3)c(F)c(F)c21` (stereo not drawn) [Example 40, 7,8-Difluoro-6-(3-hydroxy-pyrrolidine-1-carbonyl)-1-(4-iodo-2-methyl-phenyl)-1,2-dihydro-3,1-benzoxazin-4-one], the “in vitro MEK assay: % inhibition @ 1 μM” value was found to be 42%.
On the same count and under the same terms, the same measure for `Cc1cc(I)ccc1N1COC(=O)c2cc(C(=O)N3CCN(C)CC3)c(F)c(F)c21` [Example 17]: 78%; for `Cc1cc(I)ccc1N1COC(=O)c2cc(C(=O)Nc3nc4ccccc4s3)c(F)c(F)c21` [Example 29, 7,8-Difluoro-1-(4-iodo-2-methyl-phenyl)-4-oxo-1,4-dihydro-2H-3,1-benzoxazine-6-carboxylic acid benzothiazol-2-ylamide]: 21%; for `Cc1cc(I)ccc1Nc1c(C(=O)O)cc(C(=O)N2CCN(C)CC2)c(F)c1F` [Example 64, 3,4-Difluoro-2-(4-iodo-2-methyl-phenylamino)-5-[1-(4-methyl-piperazin-1-yl)-methanoyl]-benzoic acid]: 57%.
